The source of these data is ChEMBL document CHEMBL5512674, “Novel Acyl Thiourea-Based Hydrophobic Tagging Degraders Exert Potent Anti-Influenza Activity through Two Distinct Endonuclease Polymerase Acidic-Targeted Degradation Pathways” (J Med Chem, 2024).

Activity calls are given as the source filed them. No cut-off for these calls is given here.

The subject of series [1] is Influenza A virus. Put plainly: Anti-influenza activity against Influenza A virus A/WSN/33(H1N1) infected in HEK293T cells assessed as reduction in virus-induced cytopathic effect incubated for 48 hrs by CCK-8 assay. It counts as functional, organism-based. The settings on record: HEK-293T. For orientation: Protection from cytopathic effect is a common read-out in antiviral testing.

In series [2] the target is T1, von Hippel-Lindau disease tumor suppressor/Polymerase acidic protein (Influenza A virus (A/Puerto Rico/8/1934(H1N1))) (UniProt P03433+P40337). Put plainly: PROTAC activity at Influenza A virus A/WSN/33(H1N1) flag tagged Polymerase acidic protein/VHL (unknown origin) expressed in HEK293T cells assessed as degradation of PA expression at 5 uM incubated for 24 hrs by Western blotting analysis. It counts as cell-based. Background: Immunoblotting shows a protein as a band on a membrane.

For series [3], the target named is T2, von Hippel-Lindau disease tumor suppressor/Polymerase basic protein 2 (Influenza A virus (strain A/Puerto Rico/8/1934 H1N1)) (UniProt P40337+P03428). The experiment in a line: PROTAC activity at Influenza A virus A/WSN/33(H1N1) flag tagged Polymerase basic protein 2/VHL (unknown origin) expressed in HEK293T cells assessed as degradation of PB2 expression at 10 ug/ml incubated for 24 hrs by Western blotting analysis. It counts as cell-based. Particulars: dose 10.0 µg/ml.

For series [4], the target named is T3, von Hippel-Lindau disease tumor suppressor/Polymerase basic protein 1 (Influenza A virus (strain A/Puerto Rico/8/1934 H1N1)) (UniProt P03431+P40337). Put plainly: PROTAC activity at Influenza A virus A/WSN/33(H1N1) flag tagged Polymerase basic protein 1/VHL (unknown origin) expressed in HEK293T cells assessed as degradation of PB1 expression at 1 ug/ml incubated for 24 hrs by Western blotting analysis. The settings on record: dose 1.0 µg/ml. It counts as cell-based.

Series [5] is described as follows: Selectivity index, ratio of CC50 for cytotoxicity against human HEK293T cells to EC50 for anti-influenza activity against Influenza A virus A/WSN/33(H1N1) infected in HEK293T cells assessed as reduction in virus-induced cytopathic effect. It counts as toxicity, cell-based. The settings on record: read-out: Ratio CC50/EC50.
The target of series [6] is T3, von Hippel-Lindau disease tumor suppressor/Polymerase basic protein 1 (Influenza A virus (strain A/Puerto Rico/8/1934 H1N1)). The experiment in a line: PROTAC activity at Influenza A virus A/WSN/33(H1N1) flag tagged Polymerase basic protein 1/VHL (unknown origin) expressed in HEK293T cells assessed as degradation of PB1 expression at 10 ug/ml incubated for 24 hrs by Western blotting analysis. Particulars: dose 10.0 µg/ml. Format: cell-based.

Series [7] deals with T2, von Hippel-Lindau disease tumor suppressor/Polymerase basic protein 2 (Influenza A virus (strain A/Puerto Rico/8/1934 H1N1)). Put plainly: PROTAC activity at Influenza A virus A/WSN/33(H1N1) flag tagged Polymerase basic protein 2/VHL (unknown origin) expressed in HEK293T cells assessed as degradation of PB2 expression at 1 ug/ml incubated for 24 hrs by Western blotting analysis. It counts as cell-based. Particulars: dose 1.0 µg/ml.

Series [8] deals with T1, von Hippel-Lindau disease tumor suppressor/Polymerase acidic protein (Influenza A virus (A/Puerto Rico/8/1934(H1N1))). The experiment in a line: PROTAC activity at Influenza A virus A/WSN/33(H1N1) flag tagged Polymerase acidic protein/VHL (unknown origin) expressed in HEK293T cells assessed as degradation of PA expression at 10 uM incubated for 24 hrs by Western blotting analysis. Format: cell-based.

Series [9] can be described thus: Cytotoxicity against human HEK293T cells assessed as reduction in cell viability incubated for 48 hrs by CCK-8 assay. It counts as toxicity, cell-based, HEK-293T.
For series [10], the system named is Influenza B virus. Put plainly: Anti-influenza activity against Influenza B virus Yamagata/16/88 infected in HEK293T cells assessed as reduction in virus-induced cytopathic effect incubated for 48 hrs by CCK-8 assay. It counts as functional, organism-based. Particulars: Yamagata/16/88, HEK-293T.
Series [11] deals with Influenza A virus. Put plainly: Anti-influenza activity against Influenza A virus H3N2 infected in HEK293T cells assessed as reduction in virus-induced cytopathic effect incubated for 48 hrs by CCK-8 assay. Format: functional, organism-based. The settings on record: H3N2, HEK-293T.
In series [12] the test system is Influenza B virus. Put plainly: Anti-influenza activity against Influenza B virus Victoria/2/87 infected in HEK293T cells assessed as reduction in virus-induced cytopathic effect incubated for 48 hrs by CCK-8 assay. Format: functional, organism-based. The settings on record: Victoria/2/87, HEK-293T.

T3 sequence (P03431 whole entry, looked up): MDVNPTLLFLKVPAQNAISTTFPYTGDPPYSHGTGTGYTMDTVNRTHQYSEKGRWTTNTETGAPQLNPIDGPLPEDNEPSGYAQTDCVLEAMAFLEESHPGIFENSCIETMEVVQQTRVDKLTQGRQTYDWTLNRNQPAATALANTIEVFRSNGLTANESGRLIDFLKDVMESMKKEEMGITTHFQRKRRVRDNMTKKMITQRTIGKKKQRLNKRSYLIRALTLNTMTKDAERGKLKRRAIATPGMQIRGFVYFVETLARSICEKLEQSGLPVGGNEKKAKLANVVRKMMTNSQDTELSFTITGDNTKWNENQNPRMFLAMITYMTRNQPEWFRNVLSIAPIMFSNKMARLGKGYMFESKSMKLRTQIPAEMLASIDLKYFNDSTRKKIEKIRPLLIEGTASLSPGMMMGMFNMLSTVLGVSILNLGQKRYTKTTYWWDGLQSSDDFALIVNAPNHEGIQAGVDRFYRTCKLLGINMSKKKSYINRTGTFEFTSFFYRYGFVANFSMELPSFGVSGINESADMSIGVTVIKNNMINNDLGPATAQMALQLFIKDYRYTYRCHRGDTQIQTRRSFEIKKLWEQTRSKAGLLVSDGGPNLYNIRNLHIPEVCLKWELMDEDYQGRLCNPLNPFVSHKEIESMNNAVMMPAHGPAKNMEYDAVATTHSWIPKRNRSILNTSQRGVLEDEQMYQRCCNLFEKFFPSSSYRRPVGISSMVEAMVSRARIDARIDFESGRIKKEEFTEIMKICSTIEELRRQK
T3 sequence (P40337 whole entry, looked up): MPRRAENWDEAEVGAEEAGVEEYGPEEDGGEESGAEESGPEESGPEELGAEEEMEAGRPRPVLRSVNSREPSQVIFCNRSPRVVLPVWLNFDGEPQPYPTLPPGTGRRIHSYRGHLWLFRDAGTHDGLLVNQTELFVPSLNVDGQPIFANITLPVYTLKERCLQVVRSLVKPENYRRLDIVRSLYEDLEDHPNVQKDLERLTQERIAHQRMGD
T2 sequence (P03428 whole entry, looked up): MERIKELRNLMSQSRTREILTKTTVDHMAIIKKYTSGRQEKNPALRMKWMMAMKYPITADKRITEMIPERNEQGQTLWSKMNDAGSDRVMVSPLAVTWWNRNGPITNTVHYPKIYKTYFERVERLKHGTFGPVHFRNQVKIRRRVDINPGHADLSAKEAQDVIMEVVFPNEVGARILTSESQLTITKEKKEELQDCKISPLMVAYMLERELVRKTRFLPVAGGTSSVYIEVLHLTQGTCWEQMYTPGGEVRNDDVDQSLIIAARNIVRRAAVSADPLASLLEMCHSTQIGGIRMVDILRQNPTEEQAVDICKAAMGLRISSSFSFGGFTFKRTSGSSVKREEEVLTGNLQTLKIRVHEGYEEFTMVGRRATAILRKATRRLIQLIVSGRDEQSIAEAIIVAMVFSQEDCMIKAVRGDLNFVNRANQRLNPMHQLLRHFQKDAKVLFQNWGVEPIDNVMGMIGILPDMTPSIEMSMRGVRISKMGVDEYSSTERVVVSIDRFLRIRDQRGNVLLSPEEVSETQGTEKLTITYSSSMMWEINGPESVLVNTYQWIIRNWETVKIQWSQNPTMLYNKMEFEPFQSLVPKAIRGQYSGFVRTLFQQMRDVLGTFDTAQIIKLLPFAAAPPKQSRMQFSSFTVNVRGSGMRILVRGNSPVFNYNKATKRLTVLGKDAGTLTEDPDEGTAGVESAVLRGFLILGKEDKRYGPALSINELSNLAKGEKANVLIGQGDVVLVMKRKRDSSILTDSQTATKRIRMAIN
T2 sequence (P40337 whole entry, looked up): as the sequence (P40337 whole entry, looked up) above

Usually EC50 stands for the midpoint of the concentration-response curve. `CC(C)(C)c1ccc(C(=O)NC(=S)Nc2ccc(NC(=O)CCCCCCN)cc2)cc1`: in the series with Influenza A virus [1], the concentration for a half-maximal effect (EC50) is above 44000 nM.

On to `CC(C)(C)c1ccc(C(=O)NC(=S)Nc2ccc(NC(=O)CCCCCCCNC(=O)[C@@H](N)CC(N)=O)cc2)cc1`, for which the result in [2] was inactive.

In the case of `CC(C)(C)c1ccc(C(=O)NC(=S)Nc2ccc(NC(=O)CCCCCCCNC(=O)[C@@H](N)Cc3cnc[nH]3)cc2)cc1`, the outcome in [2] was inactive.

By CC50 is commonly meant the concentration that lowers cell viability or growth by half. Consider `CC(C)(C)OC(=O)NCCCC[C@H](NC(=O)OC(C)(C)C)C(=O)NCCCCCCCCCC(=O)Nc1ccc(NC(=S)NC(=O)c2ccc(C(C)(C)C)cc2)cc1`, for which the outcome in series [3], in series [4], in [6] and in series [7] was inactive. Also, the selectivity ratio in series [5] is above 2220. For the same molecule, the EC50 in the series on Influenza A virus [1] is 45 nM. In series [8], the outcome was Active. In [9], the CC50 at 48 h is above 100000 nM.

`CC(C)(C)OC(=O)N[C@@H](Cc1c[nH]c2ccccc12)C(=O)NCCCCCCC(=O)Nc1ccc(NC(=S)NC(=O)c2ccc(C(C)(C)C)cc2)cc1`: the result in [3], in [4], in series [6] and in [7] was inactive. Moreover, the selectivity ratio in series [5] is above 592. Besides, the EC50 in the series on Influenza A virus [1] turned out to be 169 nM. Further, the CC50 at 48 h in [9] was above 100000 nM.

Regarding `CC(C)(C)OC(=O)N[C@@H](Cc1c[nH]c2ccccc12)C(=O)NCCCCCCCCCC(=O)Nc1ccc(NC(=S)NC(=O)c2ccc(C(C)(C)C)cc2)cc1`, the outcome in series [3], in series [4], in series [6] and in [7] was inactive. Besides, the selectivity ratio in series [5] was above 1560. The EC50 in the series with Influenza A virus [1] was 64 nM. Besides, the result in [8] was Active. Besides, the CC50 at 48 h in series [9] was above 100000 nM.

For `CC(C)(C)c1ccc(C(=O)NC(=S)Nc2ccc(NC(=O)CCCCCCCCN)cc2)cc1`, the selectivity ratio in series [5] was found to be 17.7. The EC50 in the series on Influenza A virus [1] worked out at 365 nM. Besides, the CC50 at 48 h in [9] was determined as 6470 nM.

In the case of `CC(C)(C)OC(=O)/N=C(\NCCC[C@H](NC(=O)OC(C)(C)C)C(=O)NCCCCCCCC(=O)Nc1ccc(NC(=S)NC(=O)c2ccc(C(C)(C)C)cc2)cc1)NC(=O)OC(C)(C)C`, the outcome in series [3], in series [4], in [6] and in series [7] was inactive. In series [5], the selectivity ratio was above 267. In addition, the EC50 with Influenza A virus [1] is 374 nM. Further, the CC50 at 48 h in [9] is above 100000 nM.

Take `NC(=O)c1nc(F)cnc1O` [FAVIPIRAVIR]: the EC50 in the series on Influenza B virus [10] is above 10000 nM; in the series on Influenza A virus [11], above 10000 nM; in the series with Influenza A virus [1] it was 8290 nM; with Influenza B virus [12] it was above 10000 nM. For the same molecule, the selectivity ratio in series [5] was above 18.1. For the same molecule, in [9], the cytotoxic concentration (CC50) at 48 h was above 100000 nM.

In the case of `CC(C)(C)OC(=O)NCCCC[C@H](NC(=O)OC(C)(C)C)C(=O)NCCCCCCC(=O)Nc1ccc(NC(=S)NC(=O)c2ccc(C(C)(C)C)cc2)cc1`, the outcome in [3], in [4], in series [6] and in series [7] was inactive. In series [5], the selectivity ratio was above 1330. For the same molecule, in the series with Influenza A virus [1], the concentration for a half-maximal effect (EC50) turned out to be 75 nM. Also, in series [8], the result was Active. Further, the CC50 at 48 h in series [9] was above 100000 nM.

With `CC(C)(C)OC(=O)N[C@@H](Cc1c[nH]c2ccccc12)C(=O)NCCCCCCCCCCC(=O)Nc1ccc(NC(=S)NC(=O)c2ccc(C(C)(C)C)cc2)cc1`, the result in series [3], in series [4], in series [6] and in series [7] was inactive. Besides, in series [5], the selectivity ratio was found to be 109. Also, in the series on Influenza A virus [1], the concentration for a half-maximal effect (EC50) was 383 nM. Further, the cytotoxic concentration (CC50) at 48 h in series [9] worked out at 41800 nM.

As for `CC(C)(C)OC(=O)N[C@@H](Cc1c[nH]c2ccccc12)C(=O)NCCCCCCCCCCCC(=O)Nc1ccc(NC(=S)NC(=O)c2ccc(C(C)(C)C)cc2)cc1`, the result in series [3], in [4], in series [6] and in [7] was inactive. Further, in series [5], the selectivity ratio was above 103. In the series on Influenza A virus [1], the EC50 was 974 nM. In addition, the half-maximal cytotoxic concentration (CC50) at 48 h in [9] is above 100000 nM.

Consider `CC(C)(C)OC(=O)N[C@@H](Cc1c[nH]c2ccccc12)C(=O)NCCCC(=O)Nc1ccc(NC(=S)NC(=O)c2ccc(C(C)(C)C)cc2)cc1`, for which the outcome in series [3], in series [4], in series [6] and in [7] was inactive. In addition, in series [5], the selectivity ratio amounted to 167. Besides, the 50% effective concentration (EC50) in the series on Influenza A virus [1] amounted to 572 nM. Further, the CC50 at 48 h in series [9] came to 95400 nM.

For `CC(C)(C)OC(=O)N[C@@H](Cc1c[nH]c2ccccc12)C(=O)Nc1ccc(NC(=S)NC(=O)c2ccc(C(C)(C)C)cc2)cc1`, the outcome in series [3], in [4], in [6] and in [7] was inactive. Also, the selectivity ratio in series [5] was above 246. Moreover, the EC50 in the series with Influenza A virus [1] was 407 nM. In addition, the CC50 at 48 h in series [9] was above 100000 nM.

Turning to `CC(C)(C)OC(=O)N[C@@H](Cc1c[nH]c2ccccc12)C(=O)NCCCCCCCC(=O)Nc1ccc(NC(=S)NC(=O)c2ccc(C(C)(C)C)cc2)cc1`, the outcome in series [3], in series [4], in series [6] and in series [7] was inactive. Further, the selectivity ratio in series [5] was above 2330. Moreover, in the series on Influenza A virus [1], the EC50 amounted to 43 nM. For the same molecule, in [9], the 50% cytotoxic concentration (CC50) at 48 h is above 100000 nM.

Take `CC(C)(C)c1ccc(C(=O)NC(=S)Nc2ccc(NC(=O)CCCCCCCN)cc2)cc1`: the EC50 in the series with Influenza A virus [1] was above 43000 nM.

Regarding `CCCCCCCCNC(=O)[C@H](CCCCNC(=O)OC(C)(C)C)NC(=O)OC(C)(C)C`, the result in series [2] was inactive.

`CC(C)(C)OC(=O)NCCCC[C@H](NC(=O)OC(C)(C)C)C(=O)NCCCCCCCCCCCC(=O)Nc1ccc(NC(=S)NC(=O)c2ccc(C(C)(C)C)cc2)cc1`: the result in [3], in series [4], in [6] and in [7] was inactive. The selectivity ratio in series [5] is above 187. Also, the EC50 with Influenza A virus [1] was found to be 534 nM. The CC50 at 48 h in series [9] was above 100000 nM.

For `CC(C)(C)OC(=O)NCCCC[C@H](NC(=O)OC(C)(C)C)C(=O)NCCOCCOCC(=O)Nc1ccc(NC(=S)NC(=O)c2ccc(C(C)(C)C)cc2)cc1`, in the series with Influenza A virus [1], the EC50 is above 25000 nM.

As for `CC(C)(C)OC(=O)NCCCC[C@H](NC(=O)OC(C)(C)C)C(=O)NCCCCCCCCCCC(=O)Nc1ccc(NC(=S)NC(=O)c2ccc(C(C)(C)C)cc2)cc1`, the result in series [3], in series [4], in series [6] and in [7] was inactive. Besides, the selectivity ratio in series [5] was 400. Moreover, the EC50 with Influenza A virus [1] was determined as 186 nM. For the same molecule, the result in series [8] was Active. In series [9], the CC50 at 48 h turned out to be 74500 nM.

For the molecule `CC(C)(C)c1ccc(C(=O)NC(=S)Nc2ccc(NC(=O)CCCCCCCCCN)cc2)cc1`, in [5], the selectivity ratio came to 21.1. The EC50 with Influenza A virus [1] was found to be 298 nM. The CC50 at 48 h in series [9] is below 6290 nM.

`CC(C)(C)OC(=O)N[C@@H](Cc1c[nH]c2ccccc12)C(=O)NCCCCCC(=O)Nc1ccc(NC(=S)NC(=O)c2ccc(C(C)(C)C)cc2)cc1`: the outcome in series [3], in [4], in [6] and in series [7] was inactive. Also, the selectivity ratio in [5] is above 291. In the series on Influenza A virus [1], the EC50 worked out at 344 nM. Also, the CC50 at 48 h in series [9] was above 100000 nM.
